Test system: miR-133
Assay: miR-133 biosensor luciferase assay in C2C12 myoblast clones
Assay type: cell-based
Conditions: C2C12 clone A10, 48 hours in growth media; TGF-β 10 ng/mL, Insulin 850 nM, IBMX 0.5 mM, AICAR 0.5 mM, Dexamethasone 1
From the text: The design of the miR-133 biosensor is based on the principle that recognition of microRNA target sites in 3′UTR by microRNA/RISC leads to the inhibition of the translation of the target mRNAs. An artificial 3′UTR containing optimized miR-133 target sites in tandem was designed and cloned downstream of the open reading frames of firefly luciferases and GFP, which in together function as miR-133 biosensor (FIG. 9A), in a lentiviral vector. C2C12 myoblast clones were infected with lentiviruses carrying the miR-133 biosensor and selected for stable expression of the reporter construct. Activity of potential modulators or miR-133 is tested and read as a reverse correlation between miR-133 functionality and luciferase/GFP intensities. The construct can be used for live-cell imaging (in vitro and in vivo) and allows real-time detection.
Two miR-133 biosensor plasmids were constructed—pCMV-FireflyLuc_miR133TS_EF1_Puro and pCMV-RenillaLuc—133TS_EF1_Puro. In the pCMV-FireflyLuc—133TS_EF1_Puro plasmid, five tandem miR-133 target sites (miR133TS; 5′-[…]-3′, SEQ ID NO:22) was cloned downstream of a firefly luciferase ORF (with a stop codon), which is driven by a CMV promoter. These miR-133 target sites in whole serve as an artificial 3′ UTR of firefly luciferase transcript. The “GGACCAAA” sequence in the miR-133 target sites is complementary to the nucleotide positions 1-8 in miR-133a and miR-133b. The “TAGCTGGTTG” sequence in the miR-133 target sites is complementary to the nucleotide positions 13-22 in miR-133a and miR-133b. The remaining sequence “CCA” sequence in the middle will not anneal to the miR-133a or miR-133b, which will form a “bulge” structure when miR-133a/b anneal to the RNA transcript of miR-133 target sites. This fireflyLuc_miR133TS cassette was further cloned into a lentivirus backbone. In the pCMV-RenillaLuc—133TS_EF1_Puro plasmid, the firefly luciferase ORF was replaced by a renilla luciferase ORF. pCMV-FireflyLuc_miR133TS_EF1_Puro and pCMV-RenillaLuc—133TS_EF1_Puro plasmids were used to generate lentivirus particles in 293T cells, which were used to infect C2C12 myoblasts. Infected C2C12 myoblasts were selected by Puromycin (2 mg/L) and clonally expanded. C2C12 clones, C11 and C3, were used in subsequent experiments.
In one experiment, a C2C12 clone C11 (25,000 cells per well on 24-well plates), was transfected with 0.5 nM and 5 nM miR-133 mimetics (Life Technologies/Ambion), which can be processed into mature miR-133 in cells. […] Both experiments were performed with 6 replicates and Z-scores above 0.5 were achieved.
In one experiment, a C2C12 clone (A10; 25,000 cells per well in 24-well plates) was treated with drugs and biologics for 48 hours in growth media. […]

Compound	effect on miR-133 by luciferase assays
NC(=O)c1ncn([C@@H]2O[C@H](CO)[C@@H](O)[C@H]2O)c1N [AICAR, 5′ amino-1-βD-ribofuranosyl-imidazole-4-carboxamide, reference compound]	enhancers of miR-133
CC(C)Cn1c(=O)n(C)c(=O)c2[nH]cnc21 [IBMX, 3-isobutyl-1-methylxanthine, reference compound]	enhancers of miR-133
Insulin	inhibitors of miR-133
TGF-β	inhibitors of miR-133

Reference: US9018188B2, “MicroRNA inhibitors” (Ottawa Hospital Research Institute, priority 2011, dated 2015)
